Results reported in patent US20220380310A1, “P2X7R ANTAGONISTS” (priority 2019, published 2022).

Columns and labels:
Type in all cases: cell-based
P2X7R = target: T1, P2X7R (Homo sapiens, UniProt Q99572); experiment: Yo-Pro-1 uptake assay (Yo-Pro-1 Assay) in HEK-293 cells transiently transfected with P2X7R; details: for remaining activity at 5 µM: HEK293, read-out: Percentage of activity remains in the presence of the compound at 5 μM, P2X7R (Yo-Pro-1 Assay); for IC50: HEK-293 cells transiently transfected with P2X7R, 30 μM bzATP as stimulus, readings 1 hour after stimulation, estimated from dose-response curves
T1 construct: expressed in transfected cells; host or cells: HEK-293
T1 sequence (Q99572 1-595): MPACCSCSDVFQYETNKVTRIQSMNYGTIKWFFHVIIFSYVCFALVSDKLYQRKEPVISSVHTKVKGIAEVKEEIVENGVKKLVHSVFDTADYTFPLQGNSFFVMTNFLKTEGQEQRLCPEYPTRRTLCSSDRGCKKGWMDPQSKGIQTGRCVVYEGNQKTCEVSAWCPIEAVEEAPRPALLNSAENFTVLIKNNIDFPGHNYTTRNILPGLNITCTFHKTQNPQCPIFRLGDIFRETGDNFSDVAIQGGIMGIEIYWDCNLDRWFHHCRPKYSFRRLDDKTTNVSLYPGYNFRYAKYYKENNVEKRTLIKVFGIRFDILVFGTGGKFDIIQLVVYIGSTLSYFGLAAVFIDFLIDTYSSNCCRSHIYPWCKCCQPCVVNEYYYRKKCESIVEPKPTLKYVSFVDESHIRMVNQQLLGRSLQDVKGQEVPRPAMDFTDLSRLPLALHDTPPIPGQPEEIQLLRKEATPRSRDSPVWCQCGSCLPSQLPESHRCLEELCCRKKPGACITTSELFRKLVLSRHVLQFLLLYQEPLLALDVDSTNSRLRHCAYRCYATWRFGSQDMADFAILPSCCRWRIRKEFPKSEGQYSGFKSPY
Description: (§1) Yo-Pro-1 Iodide (Cat. No Y3603 from Fisher Scientific) is a fluorescent DNA-binding dye with a MW of 629 Da. This method is based upon the Yo-Pro-1 entrance to cells through the dilated or “large pore form” of P2X7R and its binding to intracellular DNA whereby it increases its fluorescence intensity (J. Pharmacol. Exp. Ther. 308, 1053-1061). The dye has an absorption spectrum compatible with excitation at 488 nm by argon laser sources and its emission wavelength is in the range of 515-575 nm. This Yo-Pro-1 uptake was measured in HEK-293 cells transiently transfected with P2X7R (J. Biol. Chem. 290, 7930-7942). In Brief, HEK-293 cells were seeded in growth medium at approximately 20,000 cells/well in a 96-well plate on day 1. Transfection was performed on day 2 using Lipofectamine 2000 with the P2X7R DNA plasmid at the concentration of 1.7 μg/ml. The transfection solution was replaced with the growth medium 4 hours later. Fluorescent assays were conducted on day 4. On day 4, the medium was removed, the cells were washed with phosphate buffered saline (PBS) (Cat. No. MT21040CV from Fisher Scientific). Then, 25 μl of PBS were first loaded to each well followed by 25 μl of various test compounds. The third 25 μl of solution contained a mixture of Yo-Pro-1 and stimulus bzATP (2′(3′)-O-(4-Benzoylbenzoyl)adenosine-5′-triphosphate tri(triethylammonium) salt). The final concentration of Yo-Pro-1 was 2.5 μM and of bzATP 30 μM. Fluorescence increases were measured every 30 minutes in a microplate device with excitation at 475 nm and emission wavelength in the range of 500-550 nm. PPADS (Pyridoxalphosphate-6-azophenyl-2′,4′-disulfonic acid tetrasodium) was used as the positive control. The wells with no test compounds added nor bzATP and only containing PBS and Yo-Pro-1 were served as the negative control (N Contl). The positive control (P Contl) wells were the same as N Contl but contained the stimulus, bzATP in this case.
(§2) Data used for analysis were from microplate readings 1 hour after bzATP stimulation. The result of each well was first normalized by its corresponding base microplate reading. The base microplate reading was the first reading right after all components were added. Then, the negative control signal was subtracted from. In the negative control, the test compound and the stimulus were replaced by PBS. An average of six highest values of the plate (AVG) were considered as 100% and the value of each well was divided by AVG and presented as the relative values in percentages.
For comparison of the antagonistic effectiveness of the compounds of this invention among P2X receptors, assays were conducted at 5 μM. Among 55 compounds tested, 29 can reduce the P2X7R activity to […] of the normal activity (Table 2).

P2X2R = target: T2, P2X2R (Homo sapiens, UniProt Q9UBL9); experiment: Receptor-mediated calcium entrance assay (Calcium Assay), P2X2R; details: for remaining activity at 5 µM: compound at 5 μM, read-out: Percentage of activity remains in the presence of the compound at 5 μM, P2X2R (Calcium Assay)
T2 construct: expressed in transfected cells; host or cells: HEK-293
T2 sequence (Q9UBL9 1-471): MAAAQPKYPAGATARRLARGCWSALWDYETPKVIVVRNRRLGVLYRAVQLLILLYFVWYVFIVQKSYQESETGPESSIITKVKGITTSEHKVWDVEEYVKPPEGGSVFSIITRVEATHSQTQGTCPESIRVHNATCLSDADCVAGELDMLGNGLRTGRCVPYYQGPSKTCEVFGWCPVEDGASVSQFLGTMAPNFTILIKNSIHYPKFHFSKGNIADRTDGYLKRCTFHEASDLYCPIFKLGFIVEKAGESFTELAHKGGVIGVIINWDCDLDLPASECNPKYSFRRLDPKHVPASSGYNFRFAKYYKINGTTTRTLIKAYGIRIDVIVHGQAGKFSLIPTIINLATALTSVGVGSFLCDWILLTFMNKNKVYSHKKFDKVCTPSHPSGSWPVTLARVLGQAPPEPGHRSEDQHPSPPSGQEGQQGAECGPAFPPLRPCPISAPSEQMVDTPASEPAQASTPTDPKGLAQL

[1] = target: T3, Human P2X2 receptor (P2X2R) (Homo sapiens, UniProt Q9UBL9); experiment: Yo-Pro-1 uptake assay, P2X2R transfected HEK-293 cells; details: 5 μM ATP stimulus; for remaining activity at 5 µM: HEK293, compound at 5 μM, read-out: Percentage of activity remains in the presence of the compound at 5 μM, P2X2R (Yo-Pro-1 Assay)
T3 construct: expressed in transfected cells; host or cells: HEK-293
T3 sequence (Q9UBL9 1-471): T2 sequence (Q9UBL9 1-471)
Description: as §1, §2
Human P2X2 receptor (P2X2R) construct (J. Biol. Chem. 290, 7930-7942) was transiently transfected to HEK-293 cells and the Yo-Pro-1 assay was performed as described above. When 5 μM ATP was used as the stimulus, the elevation of receptor mediated activity can be seen in 10 minutes.

[2] = compound at 5 μM, 30 μM bzATP stimulus, reading 1 hour after stimulation, transfected HEK-293 cells

Row | Compound | remaining activity at 5 µM (P2X7R; [2]) [%] | IC50 (P2X7R) [nM] | remaining activity at 5 µM (P2X2R) [%] | remaining activity at 5 µM [1] [%] | Percentage of activity remains in the presence of the compound at 5 μM, P2X7R (Yo-Pro-1 Assay) (P2X7R; [2]) [%] | Percentage of activity remains in the presence of the compound at 5 μM, P2X2R (Calcium Assay) (P2X2R) [%] | Percentage of activity remains in the presence of the compound at 5 μM, P2X2R (Yo-Pro-1 Assay) [1] [%]
1 | O=C(CCc1ccccc1)NC1CCCN(c2ccc(S(=O)(=O)Nc3ccccc3)cc2)C1 (stereo not drawn) [#50] | -1.1 | 600 | 67.2 | 59.7 | – | – | –
2 | O=C(CCc1ccccc1)NC1CCCN(c2ccc(S(=O)(=O)NC3CCCCC3)cc2)C1 (stereo not drawn) [#51] | -1 | 3100 | 81.2 | 46.6 | – | – | –
3 | NS(=O)(=O)c1ccc(N2CCCC(NC(=O)CCc3ccccc3)C2)cc1 (stereo not drawn) [#53] | -0.5 | 4600 | 58 | 70.9 | – | – | –
4 | Cc1nc(N=Nc2ccc(S(=O)(=O)[O-])cc2S(=O)(=O)[O-])c(COP(=O)([O-])[O-])c(C=O)c1O.[Na+].[Na+].[Na+].[Na+] [PPADS, Pyridoxalphosphate-6-azophenyl-2′,4′-disulfonic acid tetrasodium, reference compound] | – | – | – | – | 0.7 | 6.2 | 29.6

Further molecules by falling IC50 (P2X7R), results first:

Row | remaining activity at 5 µM (P2X7R; [2]) [%] | IC50 (P2X7R) [nM] | remaining activity at 5 µM (P2X2R) [%] | remaining activity at 5 µM [1] [%] | Compound | Percentage of activity remains in the presence of the compound at 5 μM, P2X7R (Yo-Pro-1 Assay) (P2X7R; [2]) [%] | Percentage of activity remains in the presence of the compound at 5 μM, P2X2R (Calcium Assay) (P2X2R) [%] | Percentage of activity remains in the presence of the compound at 5 μM, P2X2R (Yo-Pro-1 Assay) [1] [%]
5 | 4.6 | 2900 | 52.7 | 85.4 | O=C(CCc1ccccc1)NC1CCCN(c2ccc(S(=O)(=O)N3CCCC3)cc2)C1 (stereo not drawn) [#55] | – | – | –
6 | 36.9 | 2200 | 72.3 | 45.8 | O=C(CCc1ccccc1)NC1CCCN(c2ccc(S(=O)(=O)NCc3ccco3)cc2)C1 (stereo not drawn) [#52] | – | – | –
7 | -9.3 | 1500 | 59.4 | 81.7 | O=C(CCc1ccccc1)NC1CCCN(c2ccc(S(=O)(=O)N3CCCCC3)cc2)C1 (stereo not drawn) [#54] | – | – | –
